Literature values in patent publication US6846837B2, “Topical administration of basic antifungal compositions to treat fungal infections of the nails” (priority 2002, dated 2005).

What was measured:
[1] = forms Ca(OH)2
[2] = not given; remark: listed apart in the source
onychomycosis = conditions: standard oral treatment

[O]=[Ca] [Calcium oxide]
solubility in water [1]: Soluble in water, Form Ca(OH)2

CNC [Dimethylamine]
pKa: 10.73

CC(C)CCN [Isopentylamine]
pKa: pKa = 10.6

O=P([O-])([O-])O.[K+].[K+] [Potassium phosphate, dibasic]
pH of Aqueous Solution, in words (alkalinity) [2]: Aqueous solution is slightly alkaline

O=B[O-].[Na+] [Sodium metaborate]
pH of Aqueous Solution, in words (alkalinity) [2]: Strongly alkaline

CN(C)C [Trimethylamine]
pKa: 9.81

CN(C/C=C/C#CC(C)(C)C)Cc1cccc2ccccc12 [terbinafine]
disease-free nails, share of cases (onychomycosis): 35-50%
